Our source for the T/C values is PubChem BioAssay AID256 (DTP/NCI, 2004).

The assay concerns CD2F1 mice, L1210 leukemia ip, survival T/C. Nature of the assay: NCI In Vivo Anticancer Drug Screen. Data for tumor model L1210 Leukemia (intraperitoneal) in CD2F1 (CDF1) mice. The settings on record: endpoint: mean survival time, higher = longer survival. Summed up: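 Ratio T/C, where T is the treated-group value and C the vehicle-dosed control value, from mice implanted with a transplantable tumor.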

Setting [1] is: dose: 100.0 mg/kg/injection, schedule: Q04DX003 (ip), vehicle: saline.
[2] abbreviates: dose: 200.0 mg/kg/injection, schedule: Q04DX003 (ip), vehicle: saline.
[3] abbreviates: dose: 50.0 mg/kg/injection, schedule: Q01DX009 (ip), vehicle: saline with Tween-80.
[4] abbreviates: dose: 100.0 mg/kg/injection, schedule: Q01DX009 (ip), vehicle: saline with Tween-80.
Setting [5] is: dose: 100.0 mg/kg/injection, schedule: Q04DX003 (ip), vehicle: saline with Tween-80.
Where [6] appears, read: dose: 200.0 mg/kg/injection, schedule: Q01DX009 (ip), vehicle: saline with Tween-80.
Setting [7] is: dose: 200.0 mg/kg/injection, schedule: Q04DX003 (ip), vehicle: saline with Tween-80.
[8] abbreviates: dose: 25.0 mg/kg/injection, schedule: Q01DX009 (ip), vehicle: saline with Tween-80.
The mark [9] stands for this setting: dose: 100.0 mg/kg/injection, schedule: Q01DX001 (ip), vehicle: saline.
The mark [10] stands for this setting: dose: 200.0 mg/kg/injection, schedule: Q01DX001 (ip), vehicle: saline.
The mark [11] stands for this setting: dose: 400.0 mg/kg/injection, schedule: Q01DX001 (ip), vehicle: saline.
[12] abbreviates: dose: 400.0 mg/kg/injection, schedule: Q04DX003 (ip), vehicle: saline with Tween-80.
Where [13] appears, read: dose: 400.0 mg/kg/injection, schedule: Q04DX003 (ip), vehicle: saline.

Values joined by “and” are separate entries in the source; they are usually repeats but may differ in a detail not shown here. Equal entries are not always repeated. Inconclusive results and toxic doses are left out.

`N#Cc1cn(C2CCCCC2)c2ncccc12`: the T/C was 113 % of control under setting [1] and 97 % of control under setting [2].
As for `O=CNc1cccc2ccc3cc4ccccc4cc3c12`, the T/C is 90 % of control under setting [3]; 88 % of control under setting [4]; 94 % of control under setting [5]; 93 % of control under setting [6]; 88 % of control under setting [7].
As to `O=C(N/N=C/c1ccc([N+](=O)[O-])o1)c1ccccc1N=Cc1ccc([N+](=O)[O-])o1`, the T/C by setting is: under setting [4], 96 % of control; under setting [6], 98 % of control; (dose: 400.0 mg/kg/injection, schedule: Q01DX009 (ip), vehicle: saline with Tween-80) 104 % of control.
As for `COC1=C(OC)C(=O)C(C/C=C(\C)CC/C=C(\C)CC/C=C(\C)CC/C=C(\C)CC/C=C(\C)CC/C=C(\C)CC/C=C(\C)CC/C=C(\C)CC/C=C(\C)CCC=C(C)C)=C(C)C1=O`, the T/C runs as follows: (dose: 6.25 mg/kg/injection, schedule: Q01DX009 (ip), vehicle: saline with Tween-80) 116 % of control and 97 % of control; (dose: 12.5 mg/kg/injection, schedule: Q01DX009 (ip), vehicle: saline with Tween-80) 98 % of control and 100 % of control; under setting [8], 94 % of control and 100 % of control; under setting [3], 97 % of control and 106 % of control; under setting [9], 96 % of control; under setting [4], 94 % of control and 102 % of control. For the same compound, the T/C is 92 % of control under setting [10]; 97 % of control and 100 % of control under setting [6]; 94 % of control under setting [11].
As for `CC1(C)C2CC=C(CC3CC(=O)OC3=O)C1C2` (stereo not drawn), the T/C reads like this: (dose: 75.0 mg/kg/injection, schedule: Q01DX001 (ip), vehicle: other) 97 % of control; (dose: 150.0 mg/kg/injection, schedule: Q01DX001 (ip), vehicle: other) 102 % of control; (dose: 300.0 mg/kg/injection, schedule: Q01DX001 (ip), vehicle: other) 108 % of control.
`CC(=O)NC1C=C(C)C(=O)O1` (stereo not drawn): the T/C by setting is: (dose: 100.0 mg/kg/injection, schedule: Q04DX002 (ip), vehicle: saline) 102 % of control; (dose: 200.0 mg/kg/injection, schedule: Q04DX002 (ip), vehicle: saline) 91 % of control; (dose: 400.0 mg/kg/injection, schedule: Q04DX002 (ip), vehicle: saline) 94 % of control.
On to `O=c1c(F)cn(-c2ccco2)c(=O)n1-c1ccco1`, for which the T/C is, setting by setting: under setting [7], 98 % of control; under setting [12], 102 % of control.
In the case of `CCC(=O)c1ccc(OCOc2ccc(C(=O)CC)cc2OC)c(OC)c1`, the T/C runs as follows: under setting [9], 94 % of control; under setting [10], 96 % of control; under setting [11], 91 % of control.
`C/C=C/COC1CCS(=O)(=O)C1` (stereo not drawn): the T/C reads like this: under setting [3], 104 % of control; under setting [4], 97 % of control; under setting [6], 97 % of control.
In the case of `CCCCCCCC(=O)NC1CCC(C(C)(C)C)CC1` (stereo not drawn), the T/C is 93 % of control (dose: 100.0 mg/kg/injection, schedule: Q04DX003 (ip), vehicle: other); 94 % of control (dose: 200.0 mg/kg/injection, schedule: Q04DX003 (ip), vehicle: other); 89 % of control (dose: 400.0 mg/kg/injection, schedule: Q04DX003 (ip), vehicle: other).
On to `CC(O)C(NC(=O)c1cnc(=O)[nH]c1N)C(=O)O` (stereo not drawn), for which the T/C by setting is: under setting [8], 105 % of control; under setting [3], 102 % of control; under setting [4], 102 % of control.
Consider `CC(=O)O[C@@H]1CO[C@H]2O[C@H]3[C@@H](C(C=O)=C[C@H](O)[C@@H]4C5=C(C(C)C)CC[C@]5(C)CC[C@@]34C)[C@@]2(O)C1=O`, for which the T/C reads like this: (dose: 0.75 mg/kg/injection, schedule: Q01DX009 (ip), vehicle: Klucel (hydroxypropylcellulose) (HPC)) 104 % of control; (dose: 1.5 mg/kg/injection, schedule: Q01DX009 (ip), vehicle: Klucel (hydroxypropylcellulose) (HPC)) 104 % of control; (dose: 3.0 mg/kg/injection, schedule: Q01DX009 (ip), vehicle: Klucel (hydroxypropylcellulose) (HPC)) 104 % of control; (dose: 6.0 mg/kg/injection, schedule: Q01DX009 (ip), vehicle: Klucel (hydroxypropylcellulose) (HPC)) 107 % of control.
Take `CC(=O)c1ccc2c3c(ccc([N+](=O)[O-])c13)CC2`: the T/C reads like this: under setting [4], 94 % of control; under setting [5], 100 % of control and 98 % of control; under setting [7], 100 % of control and 98 % of control; under setting [12], 98 % of control and 101 % of control.
With `NNC(=O)c1ccc(N)cc1`, the T/C (dose: 100.0 mg/kg/injection, schedule: Q04DX003 (ip), vehicle: Klucel (hydroxypropylcellulose) (HPC)) is 95 % of control.
As for `CC[CH2][Sn]([CH2]CC)([CH2]CCC#N)[O]C(C)=O`, the T/C runs as follows: (dose: 0.09 mg/kg/injection, schedule: Q01DX009 (ip), vehicle: saline) 97 % of control; (dose: 0.19 mg/kg/injection, schedule: Q01DX009 (ip), vehicle: saline) 101 % of control; (dose: 0.39 mg/kg/injection, schedule: Q01DX009 (ip), vehicle: saline) 100 % of control and 105 % of control; (dose: 1.56 mg/kg/injection, schedule: Q01DX009 (ip), vehicle: saline) 103 % of control.
In the case of `O=C(CN1CC1)NCCCCCCCCCNC(=O)CN1CC1`, the T/C reads like this: (dose: 22.0 mg/kg/injection, schedule: Q01DX001 (ip), vehicle: carboxymethylcellulose (CMC)) 113 % of control; (dose: 33.0 mg/kg/injection, schedule: Q01DX001 (ip), vehicle: carboxymethylcellulose (CMC)) 117 % of control.
As to `CC(=O)NC(=O)CC(O)(c1ccccc1)c1ccccc1`, the T/C is, setting by setting: (dose: 200.0 mg/kg/injection, schedule: Q01DX001 (ip), vehicle: saline with Tween-80) 91 % of control; (dose: 400.0 mg/kg/injection, schedule: Q01DX001 (ip), vehicle: saline with Tween-80) 88 % of control.
Regarding `O=Cc1cc(Cl)ccc1O`, the T/C was 108 % of control under setting [4], 95 % of control under setting [5], 102 % of control under setting [6] and 95 % of control under setting [7].
Regarding `CC(=NCc1ccccc1)C(C)(O)c1ccccc1` (stereo not drawn), the T/C was 107 % of control under setting [9], 101 % of control under setting [10] and 96 % of control under setting [11].
With `[Br][Pt+2][Br].[NH-]c1cccc(I)c1.[NH-]c1cccc(I)c1`, the T/C runs as follows: (dose: 3.12 mg/kg/injection, schedule: Q04DX003 (ip), vehicle: distilled water + Tween-80) 98 % of control; (dose: 6.25 mg/kg/injection, schedule: Q04DX003 (ip), vehicle: distilled water + Tween-80) 101 % of control; (dose: 12.5 mg/kg/injection, schedule: Q04DX003 (ip), vehicle: distilled water + Tween-80) 101 % of control; (dose: 25.0 mg/kg/injection, schedule: Q04DX003 (ip), vehicle: distilled water + Tween-80) 101 % of control; (dose: 50.0 mg/kg/injection, schedule: Q04DX003 (ip), vehicle: distilled water + Tween-80) 101 % of control; (dose: 100.0 mg/kg/injection, schedule: Q04DX003 (ip), vehicle: distilled water + Tween-80) 98 % of control. Further, the T/C (dose: 200.0 mg/kg/injection, schedule: Q04DX003 (ip), vehicle: distilled water + Tween-80) is 114 % of control.
Regarding `COC(=O)NC1=Nc2ccccc2-c2ccccc2N1`, the T/C reads like this: under setting [5], 101 % of control; under setting [7], 96 % of control; under setting [12], 96 % of control.
Regarding `CCCOP(=O)(N1CC1(C)C)N1CC1(C)C` (stereo not drawn), the T/C runs as follows: (dose: 6.3 mg/kg/injection, schedule: Q04DX003 (ip), vehicle: saline) 101 % of control; (dose: 12.5 mg/kg/injection, schedule: Q04DX003 (ip), vehicle: saline) 101 % of control; (dose: 25.0 mg/kg/injection, schedule: Q01DX009 (ip), vehicle: saline) 119 % of control; (dose: 25.0 mg/kg/injection, schedule: Q04DX003 (ip), vehicle: saline) 124 % of control; (dose: 50.0 mg/kg/injection, schedule: Q01DX009 (ip), vehicle: saline) 188 % of control; (dose: 100.0 mg/kg/injection, schedule: Q01DX009 (ip), vehicle: saline) 156 % of control and 186 % of control. In addition, under setting [1], the T/C was 124 % of control.
Regarding `CC(=O)CCCSCCO`, the T/C runs as follows: under setting [1], 101 % of control; under setting [2], 97 % of control; under setting [13], 101 % of control.
Turning to `O=[N+]([O-])c1ccc(N/N=C/c2ccc(CO)cc2)c([N+](=O)[O-])c1`, the T/C runs as follows: under setting [2], 91 % of control; under setting [13], 92 % of control.
Turning to `CCCCCCCCCSc1nc2ccccc2s1`, the T/C was 87 % of control (dose: 100.0 mg/kg/injection, schedule: Q04DX002 (ip), vehicle: saline with Tween-80); 97 % of control (dose: 200.0 mg/kg/injection, schedule: Q04DX002 (ip), vehicle: saline with Tween-80); 93 % of control (dose: 400.0 mg/kg/injection, schedule: Q04DX002 (ip), vehicle: saline with Tween-80).
